Laboratory results from patent publication US5232917A, “Methods, compositions, and compounds for allosteric modulation of the GABA receptor by members of the androstane and pregnane series” (priority 1991, dated 1993).
Where two headings read alike, the source gives them in different places.

Tests used:
[1] = system: GABA receptor complex (36Cl uptake, cerebral cortical synaptoneurosomes); assay: GABA-stimulated 36Cl uptake in rat cerebral cortical synaptoneurosomes; assay type: biochemical, rat (male Sprague-Dawley)
Method: In addition, the ability of the BZ clonazepam to modulate ^36 Cl uptake in the presence or absence of 5α-pregnandiol was evaluated.
The homogenate was diluted to a final volume of 40 mL with buffer and filtered through three layers of Nylon mesh (160 μm).
Aliquots of membrane preparation (200 μL) were preincubated at 30° C. for 10 min. The interaction was initiated by the simultaneous addition of drugs/steroids and 0.2 mL ^36 Cl (New England Nuclear Boston, Mass., 0.55 mCi/mmol, 0.8 μCi/ml) resulting in a total incubation volume of 0.4 mL. Steroids and test drugs were solubilized in dimethylsufoxide (DMSO) and added to the reaction mixture in 2 μL aliquots. An equal volume of vehicle was always included in the control reaction mixture. The mixture was gently mixed and ^36 Cl uptake terminated after 5 sec by the of 5 mL of ice cold buffer containing 100 μM picrotoxin (Sigma Chem Co.) followed immediately by rapid filtration through glass fiber filters (Whatman GF/C) under vacuum. The filters were washed twice with 5 mL of ice-cold buffer and the filter-bound radioactivity quantitated by liquid scintillation spectrophotometry. Specific uptake was calculated by subtracting the amount of ^36 Cl bound to the filters in the absence of synaptoneurosomes from that observed in their presence. Percent enhancement represents percent increase in uptake over that of basal ^36 Cl uptake. Statistical comparisons utilized the analysis of variance (ANOVA).

[2] = system: GABA receptor-chloride ionophore complex (GR complex); assay: [35S]TBPS binding modulation assay; settings: for IC50: read-out: IC50, inhibition of [35S]-TBPS binding, +5 μM GABA, in the presence of 5 μM GABA; for Max. Inhib., maximal % of specifically bound [35S]-TBPS displaced: saturating concentrations of test compound
open-field activity = assay: Open-field activity test; assay type: in vivo, mice (male N.I.H. Swiss-Webster)
From the text: (§1) The light/dark transition test (Crawley and Goodwin, 1980) is based on the observation that rodents naturally tend to explore novel environments, but open, brightly lit arenas are aversive to the rodents and inhibit exploratory behavior (Christmas and Maxwell, 1970; File, 1980). […] Similar to the light/dark transition test, the open-field test measures the antagonism between the tendency to explore a novel environment and the tendency to remain still in an aversive environment (brightly lit arena). […] The open-field test provides a simple, non-punished assessment of the potential anxiolytic properties of novel compounds. Finally, 3α-OH-DHP was tested for anxiolytic properties in a Vogel conflict paradigm. The ability of BZs to attenuate the suppression of behavior by punishment in conflict paradigms is well established (Gellar et al., 1962; Vogel et al., 1971).
(§2) Male N.I.H. Swiss-Webster mice (Harlan) weighing 15-20 g were used in all experiments. The mice were housed 4/cage in polyethylene cages with sawdust bedding. The colony room was environmentally controlled (22° C.) with a 12 hr. light/dark cycle (0600-1800 hrs.). The mice had free access to food and water. The experiments were run from 0700-1500 hrs. and groups were counterbalanced for time of day effects.
As a secondary measure of anxiolytic effects, naive mice were placed in the center of a large, brightly lit plexiglass box (42×42×30.5 cm) and the total distance traveled was measured during a 10 min. test period. […] The Digiscan Activity Monitor (Omnitech Electronics, Columbus, Ohio) includes 16 photobeams that surround the box. The activity monitor is linked to a computer through a Digiscan Analyzer (Omnitech Electronics) and the data is analyzed using the Integrated Lab Animal Monitoring System (Omnitech Electronics). The mice were administered drugs as described for light/dark transitions.
(§3) 2-Hydroxypropyl β-cyclodextrin Diazepam and chlordiazepoxide are available from Sigma, Co. (St. Louis, Mo.). CGS-8216 was obtained from Ciba-Geigy (Summit, N.J.). All drugs were dissolved in 20% β-cyclodextrin in water and sonicated overnight. All drugs were administered intraperitoneally in a volume of 100 μL/20 g. CGS-8216 was administered subcutaneously in a volume of 100 μL/20 g.
(§4) The vehicle control data were analyzed across test days using an 1-way analysis of variance (ANOVA). […] The dose-response curves were then analyzed using an 1-way ANOVA, followed by Dunnett's t-test for individual comparisons between doses and control. The open-field and habituated locomotor data were analyzed using ANOVA followed by Dunnett's t-test. […] All data is expressed as the mean±S.E.M.

[3] = system: number of light/dark transitions (anxiety); assay: Light/dark transition test; assay type: in vivo, mice (male N.I.H. Swiss-Webster); settings: 3α-OH-DHP 10, 20, 40 mg/kg; 5α-THDOC 20 mg/kg; diazepam 1.0, 5.0, 10, 20 mg/kg; 20 mg/kg
From the text: as §1, §2
The method used was previously described by Crawley and Goodwin (1980). The apparatus included a large box (26×33×24 cm) connected to a small box (15×22×14 cm) through an opening (5×6 cm). The large box was brightly lit with a standard 100W light bulb, while the small box was kept dark. Following pretreatment with a test drug, mice were placed in the center of the large box and the number of transitions between the large and small boxes was counted for 10 min. […] During the antagonist studies, CGS-8216 was administered 30 min. prior to the test drug.
as §3, §4

[4] = system: metrazol-induced seizures; assay: Time course of antimetrazol activity of prodrugs; assay type: in vivo, mice (CF1); settings: 60 mg/kg ip; for responders at 60 mg/kg: Mus musculus
[5] = system: metrazol induced convulsions; assay: Inhibition of metrazol induced convulsions (Table 2); assay type: in vivo, mice; settings: Mus musculus; inhibition of metrazol induced convulsions; read-out: Anti-Metrazol ED50
Method: Experiments were also performed to determine the physiological relevance of these interactions by measuring the ability of the compound of and used in the invention to modulate TBPS-induced convulsions in Swiss-Webster mice. […] The time to onset of myoclonus (presence of forelimb clonic activity) induced by TBPS was determined by observing each mouse for a period of 45 minutes. Significant differences between the time to onset in control mice vs. steroid-treated mice were determined by Student's t-test. […] The number of animals with tonic and/or clonic convulsions was recorded. In the maximal electroshock test, 50 mA of current at 60 Hz was delivered through corneal electrodes for 200 msec to induce tonic seizure. […] The ED50 (the dose at which the half-maximal effect occurs) was determined for each screen.
Adult male CFI mice (20-30g) were used in these studies. […] Percent protection against metrazol-induced seizures was plotted against time after administration of the compound. […] Ten to twelve mice were used per dose of test drug. […] The number of animals with tonic and/or clonic convulsions was recorded. The ability of the steroid to abolish the tonic component was defined as the endpoint. Sedative potential was determined by a rotorod test where the number of mice staying on a rotating (6 rpm) rod for ≥1 min. in each of three trials was determined.

progesterone receptor = target: T1, progesterone receptor (Bos taurus, UniProt F1N712); assay: Inhibition of 3H-progesterone binding to bovine uteral progesterone receptors
T1 construct: from tissue; host or cells: bovine uterus cytosol
T1 sequence (F1N712 1-914): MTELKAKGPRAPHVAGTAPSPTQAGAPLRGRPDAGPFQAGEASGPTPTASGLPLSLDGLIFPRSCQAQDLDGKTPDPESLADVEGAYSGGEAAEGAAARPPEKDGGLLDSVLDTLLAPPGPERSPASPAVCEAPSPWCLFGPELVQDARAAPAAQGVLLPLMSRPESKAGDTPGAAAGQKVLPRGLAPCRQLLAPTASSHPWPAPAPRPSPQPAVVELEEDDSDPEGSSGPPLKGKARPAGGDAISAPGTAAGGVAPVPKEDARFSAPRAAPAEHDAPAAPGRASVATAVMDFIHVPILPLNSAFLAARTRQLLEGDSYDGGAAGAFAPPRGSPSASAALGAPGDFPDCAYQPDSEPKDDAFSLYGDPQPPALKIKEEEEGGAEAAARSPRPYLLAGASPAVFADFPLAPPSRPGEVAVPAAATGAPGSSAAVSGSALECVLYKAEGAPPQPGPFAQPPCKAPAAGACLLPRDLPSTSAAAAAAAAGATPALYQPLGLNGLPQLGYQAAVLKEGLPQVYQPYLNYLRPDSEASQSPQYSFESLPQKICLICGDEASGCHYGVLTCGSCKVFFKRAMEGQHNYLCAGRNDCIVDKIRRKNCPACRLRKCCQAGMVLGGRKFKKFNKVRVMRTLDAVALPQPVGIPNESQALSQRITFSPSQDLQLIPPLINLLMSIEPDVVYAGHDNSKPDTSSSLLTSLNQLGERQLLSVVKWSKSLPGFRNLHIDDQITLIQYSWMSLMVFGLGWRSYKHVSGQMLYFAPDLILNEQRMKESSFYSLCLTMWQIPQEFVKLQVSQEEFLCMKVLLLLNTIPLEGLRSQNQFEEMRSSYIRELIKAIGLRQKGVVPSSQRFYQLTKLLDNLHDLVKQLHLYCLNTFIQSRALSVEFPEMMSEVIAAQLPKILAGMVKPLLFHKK
Method: The hormonal activity of drugs described herein was further studied through testing their potential estrogenic, progestinic, mineralocorticoid and glucocorticoid activities. These activities were analyzed by monitoring the ability of the drugs to inhibit binding of the steroid hormones to their respective hormone receptors.
For the data presented in Table 9, bovine uteri cytosol was isolated as they were for Table 7 and used for following binding to progesterone receptors by following the inhibition of ^3 H-progesterone, the natural ligand.

[6] = 1 hr, read-out: Antimetrazol activity, % of animals protected, 1 hr
[7] = 4 hr, read-out: Antimetrazol activity, % of animals protected, 4 hr

For `CN1CCc2cc3c(cc2[C@H]1[C@@H]1OC(=O)c2c1ccc1c2OCO1)OCO3` [(+)bicuculline, reference compound], the “block of the stimulatory effect of GABA on 36Cl uptake” value ([1]; (+)bicuculline 10 μM, GABA 25 μM) was “completely block” and the “% enhancement of basal 36Cl uptake” value ([1]; GABA (25 μM) + (+)bicuculline (10 μM)) was 3 ± 2%.
`NCCCC(=O)O` [GABA, gamma-aminobutyric acid] was tested, and the “% enhancement of basal 36Cl uptake” value ([1]; GABA (25 μM) alone) was 133 ± 6% and the “shift of [35S]TBPS dose-response curve by (+)bicuculline” value ([2]; 0.5-3.0 μM bicuculline, FIGS. 1A, 1B) was “classical parallel shift”.
For `CC(=O)[C@H]1CC[C@H]2[C@@H]3CC[C@H]4C[C@@H](O)CC[C@]4(C)[C@H]3CC[C@]12C` [Example 3β-OH-DHP, 3β-hydroxy-5α-pregnan-20-one, reference compound], the “total distance, open-field” value (open-field activity; 20 mg/kg, 10 min, vehicle 2004.6 ± 134.6) was 1979.8 ± 174.5 cm, the “effect on open-field activity” value (open-field activity; steroids 20 mg/kg, diazepam 10 mg/kg) was “did not show any effect” and the “effect on number of light/dark transitions (words)” value [3] was “did not produce an anxiolytic effect”. For the same compound, the IC50 [2] was over 100000 nM, the “Max. Inhib., maximal % of specifically bound [35S]-TBPS displaced” value [2] was 33% and the “IC50, inhibition of [35S]-TBPS binding, No GABA” value ([2]; washed synaptoneurosomes, no GABA added) was “Inactive”.
In the case of `CC(=O)OCC(=O)[C@H]1CC[C@H]2[C@@H]3CC[C@H]4C[C@H](O)CC[C@]4(C)[C@H]3CC[C@]12C`, the responders at 60 mg/kg [4, 6] is reported as 50% and the responders at 60 mg/kg [4, 7] is reported as 0%.
In the case of `CC(=O)[C@H]1CC[C@H]2[C@@H]3CCC4=C[C@H](O)CC[C@]4(C)[C@H]3CC[C@]12C` [3α-HYDROXY-4-PREGNEN-20-ONE], the ED50 [5] is reported as 20 mg/kg, the IC50 [2] is reported as 154 nM and the “Max. Inhib., maximal % of specifically bound [35S]-TBPS displaced” value [2] is reported as 80%.
`CC(=O)OCC(=O)[C@H]1CC[C@H]2[C@@H]3CC[C@H]4C[C@H](OC(=O)C(C)C)CC[C@]4(C)[C@H]3CC[C@]12C` gave a responders at 60 mg/kg [4, 6] of 63% and a responders at 60 mg/kg [4, 7] of 13%.
`CC(=O)[C@H]1CC[C@H]2[C@@H]3CC[C@H]4C[C@H](OC(=O)c5ccccc5)CC[C@]4(C)[C@H]3CC[C@]12C` gave a responders at 60 mg/kg [4, 6] of 33%.
In the case of `CC(=O)[C@H]1CC[C@H]2[C@@H]3CC[C@H]4C[C@H](OC(=O)c5cccnc5)CC[C@]4(C)[C@H]3CC[C@]12C`, the “Antimetrazol activity, % of animals protected, 20 hr” value ([4]; 20 hr) is reported as 50%.
In the case of `CCO[C@H]1C[C@@]2(C)[C@@H](CC[C@@H]3[C@@H]2CC[C@]2(C)[C@@H](C(C)=O)CC[C@@H]32)C[C@@H]1O` [2β-ETHOXY-3α-HYDROXY-5α-PREGNAN-20-ONE, 2β-Ethoxy-3α-hydroxy-5α-pregnan-20-one], the ED50 [5] is reported as 6 mg/kg, the IC50 [2] is reported as 97 nM and the “Max. Inhib., maximal % of specifically bound [35S]-TBPS displaced” value [2] is reported as 100%.
For `CO[C@H]1C[C@@]2(C)[C@@H](CC[C@@H]3[C@@H]2CC[C@]2(C)[C@@H](C(C)=O)CC[C@@H]32)C[C@@H]1O` [2β-METHOXY-3α-HYDROXY-5α-PREGNAN-20-ONE, 2β-Methoxy-3α-hydroxy-5α-pregnan-20-one], the ED50 [5] was 60 mg/kg, the IC50 [2] was 66 nM and the “Max. Inhib., maximal % of specifically bound [35S]-TBPS displaced” value [2] was 100%.
`CC(=O)[C@H]1CC[C@H]2[C@@H]3CC[C@H]4C[C@](C)(O)CC[C@]4(C)[C@H]3CC[C@]12C` [3α-HYDROXY-3β-METHYL-5α-PREGNAN-20-ONE, 3α-hydroxy-3β-methyl-5α-pregnan-20-one] was tested, and the ED50 [5] was 9 mg/kg, the inhibition at 10 µM (progesterone receptor; read-out: % of inhibition of 3H-progesterone binding, A, competitor 10^-5 M, 0.15 nM 3H-progesterone) was 10% and the inhibition at 1 µM (progesterone receptor; read-out: % of inhibition of 3H-progesterone binding, A, competitor 10^-6 M, 0.15 nM 3H-progesterone) was 4%. The inhibition at 10 µM (progesterone receptor; read-out: % of inhibition of 3H-progesterone binding, B, competitor 10^-5 M, 0.25 nM 3H-progesterone) was 5%, the inhibition at 1 µM (progesterone receptor; read-out: % of inhibition of 3H-progesterone binding, B, competitor 10^-6 M, 0.25 nM 3H-progesterone) was 2% and the IC50 [2] was 60 nM. The “Max. Inhib., maximal % of specifically bound [35S]-TBPS displaced” value [2] was 100%.
